Data taken from ChEMBL document CHEMBL4819002, “Design, synthesis, evaluation, and SAR of 4-phenylindoline derivatives, a novel class of small-molecule inhibitors of the programmed cell death-1/ programmed cell death-ligand 1 (PD-1/PD-L1) interaction” (Eur J Med Chem, 2021).
The source made the active and inactive calls. The calls are words filed in the database; no cut-off is given here.

What was measured:
[1] = molecular target: T1, Programmed cell death protein 1/Programmed cell death 1 ligand 1 (Homo sapiens, UniProt Q9NZQ7); assay: Inhibition of PD1 (unknown origin)/PDL1 (unknown origin) protein-protein interaction by HTRF assay; format: protein-complex assay
[2] = molecular target: T2, Programmed cell death protein 1/Programmed cell death 1 ligand 1 (Homo sapiens) (UniProt Q15116+Q9NZQ7); assay: Inhibition of PD-1/PD-L1 interaction in CHO cells expressing PD-Ll/TCR cocultured with human Jurkat cells expressing PD-1 assessed as maximum relative luminescence intensity value incubated for 6 hrs by luciferase reporter gene assay; format: cell-based
[3] = molecular target: T1, Programmed cell death protein 1/Programmed cell death 1 ligand 1; assay: Inhibition of PD-1/PD-L1 interaction in CHO cells expressing PD-Ll/TCR cocultured with human Jurkat cells expressing PD-1 assessed as activation of effector Jurkat T cells incubated for 6 hrs by luciferase reporter gene assay; format: cell-based
[4] = molecular target: T2, Programmed cell death protein 1/Programmed cell death 1 ligand 1 (Homo sapiens); assay: Inhibition of PD-1/PD-L1 interaction in CHO cells expressing PD-Ll/TCR cocultured with human Jurkat cells expressing PD-1 assessed as maximum relative luminescence intensity value upto 10 uM incubated for 6 hrs by luciferase reporter gene assay; format: cell-based; conditions: dose microM <=10, time 6.0 hrs
[5] = Cytotoxicity against CHO cells expressing PD-Ll /TCR cocultured with human Jurkat cells expressing PD-1 measured after 24 hrs by Cell Titer-Glo based luminescent cell viability assay; format: functional
[6] = molecular target: T2, Programmed cell death protein 1/Programmed cell death 1 ligand 1 (Homo sapiens); assay: Inhibition of PD-1/PD-L1 interaction in CHO cells expressing PD-Ll/TCR cocultured with human Jurkat cells expressing PD-1 assessed as maximum relative luminescence intensity value at > 3.3 uM incubated for 6 hrs by luciferase reporter gene assay; format: cell-based; conditions: dose microM >3.3, time 6.0 hrs

T1 sequence (Q15116 whole entry): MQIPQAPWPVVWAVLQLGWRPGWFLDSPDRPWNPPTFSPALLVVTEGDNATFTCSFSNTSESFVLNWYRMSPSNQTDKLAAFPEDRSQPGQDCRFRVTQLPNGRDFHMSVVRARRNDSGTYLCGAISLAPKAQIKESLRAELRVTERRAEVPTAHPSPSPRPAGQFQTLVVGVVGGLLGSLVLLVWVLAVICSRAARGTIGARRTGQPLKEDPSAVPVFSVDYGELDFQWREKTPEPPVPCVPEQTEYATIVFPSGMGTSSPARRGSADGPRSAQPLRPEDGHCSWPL
T1 sequence (Q9NZQ7 whole entry): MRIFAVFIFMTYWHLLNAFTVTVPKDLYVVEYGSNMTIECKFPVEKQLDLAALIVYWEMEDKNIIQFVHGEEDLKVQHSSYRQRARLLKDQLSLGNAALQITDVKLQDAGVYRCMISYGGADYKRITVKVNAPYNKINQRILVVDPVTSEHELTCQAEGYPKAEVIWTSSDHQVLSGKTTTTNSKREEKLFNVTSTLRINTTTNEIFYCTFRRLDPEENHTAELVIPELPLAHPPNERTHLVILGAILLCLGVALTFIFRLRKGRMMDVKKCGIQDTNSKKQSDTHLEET

Q: Which IC50 [1] does the source give for CCCN1CCc2c(-c3cccc(COc4cc(OCc5cccc(C#N)c5)c(CNCCNC(C)=O)cc4Cl)c3C)cccc21 here?
A: 1730 nM

Q: With CC(=O)NCCNCc1cc(Cl)c(OCc2cccc(-c3cccc4c3CCN4CCCN3CCC(F)CC3)c2C)cc1OCc1cccc(C#N)c1 as the molecule, how does the IC50 [1] read?
A: 878 nM

Q: Which IC50 [1] does the source give for CC(=O)NCCNCc1cc(Cl)c(OCc2cccc(-c3cccc4c3CCN4CCN3CCC(O)CC3)c2C)cc1OCc1cccc(C#N)c1 here?
A: 322 nM

Q: Which IC50 [1] does the source give for CC(=O)NCCNCc1cc(Cl)c(OCc2cccc(-c3cccc4c3CCN4CCCN3CCC(O)C3)c2C)cc1OCc1cccc(C#N)c1 (stereo unspecified) here?
A: 63 nM

Q: For Cc1c(COc2cc(OCc3cncc(C#N)c3)c(CNC(CO)CO)cc2Cl)cccc1-c1cccc2c1CCN2CCCN1CCC(O)CC1, which IC50 [1] is on record?
A: 38 nM

Q: For CCN1CCc2c(-c3cccc(COc4cc(OCc5cccc(C#N)c5)c(CNCCNC(C)=O)cc4Cl)c3C)cccc21, which IC50 [1] is on record?
A: 743 nM

Q: With CC(=O)NCCNCc1cc(Cl)c(OCc2cccc(-c3cccc4c3CCN4CCCN3CCC(F)C3)c2C)cc1OCc1cccc(C#N)c1 (stereo unspecified) as the molecule, how does the IC50 [1] read?
A: 202 nM

Q: With COCCCN1CCc2c(-c3cccc(COc4cc(OCc5cccc(C#N)c5)c(CNCCNC(C)=O)cc4Cl)c3C)cccc21 as the molecule, how does the IC50 [1] read?
A: 905 nM

Q: With CC(=O)NCCNCc1cc(Cl)c(OCc2cccc(-c3cccc4c3CCN4CCCN3CCC(O)CC3)c2C)cc1OCC1CCCCC1 as the molecule, how does the IC50 [1] read?
A: 1130 nM

Q: For Cc1c(COc2cc(OCc3cncc(C#N)c3)c(CNCCO)cc2Cl)cccc1-c1cccc2c1CCN2CCCN1CCC(O)CC1, which IC50 [1] is on record?
A: 31 nM

Q: With Cc1c(COc2cc(OCc3cncc(C#N)c3)c(CN[C@@H](CO)C(=O)O)cc2Cl)cccc1-c1cccc2c1CCN2CCCN1CCC(O)CC1 as the molecule, how does the IC50 [1] read?
A: 12 nM

Q: And the Activity [2]?
A: Dose-Dependent Effect

Q: What about the EC50 [3] of the same molecule?
A: 2900 nM

Q: What about the RLU [4] of the same molecule?
A: 1710

Q: And the GI50 [5]?
A: > 20000 nM

Q: Which IC50 [1] does the source give for CCN(CC)CCCN1CCc2c(-c3cccc(COc4cc(OCc5cccc(C#N)c5)c(CNCCNC(C)=O)cc4Cl)c3C)cccc21 here?
A: 114 nM

Q: With CC(=O)NCCNCc1cc(Cl)c(OCc2cccc(-c3cccc4c3CCN4CCCn3cccc3)c2C)cc1OCc1cccc(C#N)c1 as the molecule, how does the IC50 [1] read?
A: 2470 nM

Q: Which IC50 [1] does the source give for CC(=O)NCCNCc1cc(Cl)c(OCc2cccc(-c3cccc4c3CCN4CCCN3CCC(O)CC3)c2C)cc1OCc1cncc(C#N)c1 here?
A: 17 nM

Q: What about the Activity [2] of the same molecule?
A: Dose-Dependent Effect

Q: What about the EC50 [3] of the same molecule?
A: 430 nM

Q: And the RLU [4]?
A: 1910

Q: And the GI50 [5]?
A: 16900 nM

Q: With CC(=O)NCCNCc1cc(Cl)c(OCc2cccc(-c3cccc4c3CCN4)c2C)cc1OCc1cccc(C#N)c1 as the molecule, how does the IC50 [1] read?
A: 1360 nM

Q: Which IC50 [1] does the source give for CC(=O)NCCNCc1cc(Cl)c(OCc2cccc(-c3cccc4c3CCN4CCCN3CCC(O)CC3)c2C)cc1OCc1cccc(C#N)c1 here?
A: 58 nM

Q: Which IC50 [1] does the source give for CC(=O)NCCNCc1cc(Cl)c(OCc2cccc(-c3cccc4c3CCN4CCCN3CCC(O)CC3)c2C)cc1OCc1ccccc1 here?
A: 446 nM

Q: Which IC50 [1] does the source give for CC(=O)NCCNCc1cc(Cl)c(OCc2cccc(-c3cccc4c3CCN4CCCN3CCC3)c2C)cc1OCc1cccc(C#N)c1 here?
A: 98 nM

Q: Which IC50 [1] does the source give for COC(=O)[C@H](CO)NCc1cc(Cl)c(OCc2cccc(-c3cccc4c3CCN4CCCN3CCC(O)CC3)c2C)cc1OCc1cncc(C#N)c1 here?
A: 41 nM

Q: With CC(=O)NCCNCc1cc(Cl)c(OCc2cccc(-c3ccc4c(c3)OCCO4)c2C)cc1OCc1cccc(C#N)c1 as the molecule, how does the IC50 [1] read?
A: 40 nM

Q: What about the EC50 [3] of the same molecule?
A: > 3300 nM

Q: What about the GI50 [5] of the same molecule?
A: 6300 nM

Q: And the Activity [6]?
A: inactive

Q: Which IC50 [1] does the source give for CC(=O)NCCNCc1cc(Cl)c(OCc2cccc(-c3cccc4c3CCN4CCCN3CCOCC3)c2C)cc1OCc1cccc(C#N)c1 here?
A: 185 nM

Q: For CC(=O)NCCNCc1cc(Cl)c(OCc2cccc(-c3cccc4c3CCN4CCCN3CCCCC3)c2C)cc1OCc1cccc(C#N)c1, which IC50 [1] is on record?
A: 197 nM

Q: Which IC50 [1] does the source give for CC(=O)NCCNCc1cc(Cl)c(OCc2cccc(-c3cccc4c3CCN4CCCN3CCCC3)c2C)cc1OCc1cccc(C#N)c1 here?
A: 77 nM

Q: For CC(=O)NCCNCc1cc(Cl)c(OCc2cccc(-c3cccc4c3CCN4CCCN3CCC(O)CC3)c2C)cc1OCc1cccnc1, which IC50 [1] is on record?
A: 79 nM

Q: For CC(=O)NCCNCc1cc(Cl)c(OCc2cccc(-c3cccc4c3CCN4C)c2C)cc1OCc1cccc(C#N)c1, which IC50 [1] is on record?
A: 878 nM
